Experimental data reported in US8211935B2, “Heterocyclic derivatives for modulation of calcium channels” (Vertex Pharmaceuticals Incorporated, priority 2004, dated 2012).
Where two headings read alike, the source gives them in different places.

Molecular target: T1, CaV2.2 (Homo sapiens, UniProt Q00975)
T1 construct: expressed in transfected cells; host or cells: HEK293
Assay: VIPR optical membrane potential assay with electrical stimulation
Type: cell-based
Description: Antagonist properties of test compounds were assessed as follows. Cells expressing the CaV of interest were placed into microtiter plates. After an incubation period, the cells were stained with fluorescent dyes sensitive to the transmembrane potential. The test compounds were added to the microtiter plate. The cells were stimulated with electrical means to evoke a CaV dependent membrane potential change from unblocked channels, which was detected and measured with trans-membrane potential-sensitive dyes. Antagonists were detected as a decreased membrane potential response to the stimulus.
VIPR® Optical Membrane Potential Assay Method with Electrical Stimulation
The following is an example of how CaV2.2 inhibition activity is measured using the optical membrane potential method. Other subtypes are performed in an analogous mode in a cell line expressing the CaV of interest.
HEK293 cells stably expressing CaV2.2 are plated into 96-well microtiter plates. After an appropriate incubation period, the cells are stained with the voltage sensitive dyes CC2-DMPE/DiSBAC2(3) as follows.
2×CC2-DMPE=20 μM CC2-DMPE: 10 mM CC2-DMPE is vortexed with an equivalent volume of 10% Pluronic, followed by vortexing in required amount of HBSS containing 10 mM HEPES. Each cell plate will require 5 mL of 2×CC2-DMPE. 50 μL of 2×CC2-DMPE is added to wells containing washed cells, resulting in a 10 μM final staining concentration. The cells are stained for 30 minutes in the dark at RT.
Vortex in required amount of Bath X with beta-cyclodextrin. Each 96 well cell plate will require 5 ml of 2×CC2DMPE. Wash plate with ELx405 with Bath X, leaving a residual volume of 50 μL/well. Add 50 μL of 2×CC2DMPE & DISBAC6(3) to each well. Stain for 30 minutes in the dark at RT.
Allow solution to sit for 10 minutes. Slowly mix in 370 mM BaCl2. This solution can be used to solvate compound plates. Note that compound plates are made at 1.5× drug concentration and not the usual 2×. Wash CC2 stained plate, again, leaving residual volume of 50 pt. Add 100 uL/well of the AY17 solution. Stain for 15 minutes in the dark at RT. Run plate on the optical reader.
The instrument comprises a microtiter plate handler, an optical system for exciting the coumarin dye while simultaneously recording the coumarin and oxonol emissions, a waveform generator, a current- or voltage-controlled amplifier, and a device for inserting electrodes in well. Under integrated computer control, this instrument passes user-programmed electrical stimulus protocols to cells within the wells of the microtiter plate.
Insert or use electrodes into each well to be assayed.
Use the current-controlled amplifier to deliver stimulation wave pulses for 3-5 s. Two seconds of pre-stimulus recording are performed to obtain the un-stimulated intensities. Five seconds of post-stimulation recording are performed to examine the relaxation to the resting state.
Data are analyzed and reported as normalized ratios of background-subtracted emission intensities measured in the 460 nm and 580 nm channels. Background intensities are then subtracted from each assay channel. Background intensities are obtained by measuring the emission intensities during the same time periods from identically treated assay wells in which there are no cells. The response as a function of time is then reported as the ratios obtained using the following formula: […]
The data is further reduced by calculating the initial (Ri) and final (Rf) ratios. These are the average ratio values during part or all of the pre-stimulation period, and during sample points during the stimulation period. The response to the stimulus R=Rf/Ri is then calculated.
Control responses are obtained by performing assays in the presence of a compound with the desired properties (positive control), such as mibefradil, and in the absence of pharmacological agents (negative control). Responses to the negative (N) and positive (P) controls are calculated as above.

[1] = Table 3, biological assay data, read-out: IC50

T1 sequence (Q00975 whole entry): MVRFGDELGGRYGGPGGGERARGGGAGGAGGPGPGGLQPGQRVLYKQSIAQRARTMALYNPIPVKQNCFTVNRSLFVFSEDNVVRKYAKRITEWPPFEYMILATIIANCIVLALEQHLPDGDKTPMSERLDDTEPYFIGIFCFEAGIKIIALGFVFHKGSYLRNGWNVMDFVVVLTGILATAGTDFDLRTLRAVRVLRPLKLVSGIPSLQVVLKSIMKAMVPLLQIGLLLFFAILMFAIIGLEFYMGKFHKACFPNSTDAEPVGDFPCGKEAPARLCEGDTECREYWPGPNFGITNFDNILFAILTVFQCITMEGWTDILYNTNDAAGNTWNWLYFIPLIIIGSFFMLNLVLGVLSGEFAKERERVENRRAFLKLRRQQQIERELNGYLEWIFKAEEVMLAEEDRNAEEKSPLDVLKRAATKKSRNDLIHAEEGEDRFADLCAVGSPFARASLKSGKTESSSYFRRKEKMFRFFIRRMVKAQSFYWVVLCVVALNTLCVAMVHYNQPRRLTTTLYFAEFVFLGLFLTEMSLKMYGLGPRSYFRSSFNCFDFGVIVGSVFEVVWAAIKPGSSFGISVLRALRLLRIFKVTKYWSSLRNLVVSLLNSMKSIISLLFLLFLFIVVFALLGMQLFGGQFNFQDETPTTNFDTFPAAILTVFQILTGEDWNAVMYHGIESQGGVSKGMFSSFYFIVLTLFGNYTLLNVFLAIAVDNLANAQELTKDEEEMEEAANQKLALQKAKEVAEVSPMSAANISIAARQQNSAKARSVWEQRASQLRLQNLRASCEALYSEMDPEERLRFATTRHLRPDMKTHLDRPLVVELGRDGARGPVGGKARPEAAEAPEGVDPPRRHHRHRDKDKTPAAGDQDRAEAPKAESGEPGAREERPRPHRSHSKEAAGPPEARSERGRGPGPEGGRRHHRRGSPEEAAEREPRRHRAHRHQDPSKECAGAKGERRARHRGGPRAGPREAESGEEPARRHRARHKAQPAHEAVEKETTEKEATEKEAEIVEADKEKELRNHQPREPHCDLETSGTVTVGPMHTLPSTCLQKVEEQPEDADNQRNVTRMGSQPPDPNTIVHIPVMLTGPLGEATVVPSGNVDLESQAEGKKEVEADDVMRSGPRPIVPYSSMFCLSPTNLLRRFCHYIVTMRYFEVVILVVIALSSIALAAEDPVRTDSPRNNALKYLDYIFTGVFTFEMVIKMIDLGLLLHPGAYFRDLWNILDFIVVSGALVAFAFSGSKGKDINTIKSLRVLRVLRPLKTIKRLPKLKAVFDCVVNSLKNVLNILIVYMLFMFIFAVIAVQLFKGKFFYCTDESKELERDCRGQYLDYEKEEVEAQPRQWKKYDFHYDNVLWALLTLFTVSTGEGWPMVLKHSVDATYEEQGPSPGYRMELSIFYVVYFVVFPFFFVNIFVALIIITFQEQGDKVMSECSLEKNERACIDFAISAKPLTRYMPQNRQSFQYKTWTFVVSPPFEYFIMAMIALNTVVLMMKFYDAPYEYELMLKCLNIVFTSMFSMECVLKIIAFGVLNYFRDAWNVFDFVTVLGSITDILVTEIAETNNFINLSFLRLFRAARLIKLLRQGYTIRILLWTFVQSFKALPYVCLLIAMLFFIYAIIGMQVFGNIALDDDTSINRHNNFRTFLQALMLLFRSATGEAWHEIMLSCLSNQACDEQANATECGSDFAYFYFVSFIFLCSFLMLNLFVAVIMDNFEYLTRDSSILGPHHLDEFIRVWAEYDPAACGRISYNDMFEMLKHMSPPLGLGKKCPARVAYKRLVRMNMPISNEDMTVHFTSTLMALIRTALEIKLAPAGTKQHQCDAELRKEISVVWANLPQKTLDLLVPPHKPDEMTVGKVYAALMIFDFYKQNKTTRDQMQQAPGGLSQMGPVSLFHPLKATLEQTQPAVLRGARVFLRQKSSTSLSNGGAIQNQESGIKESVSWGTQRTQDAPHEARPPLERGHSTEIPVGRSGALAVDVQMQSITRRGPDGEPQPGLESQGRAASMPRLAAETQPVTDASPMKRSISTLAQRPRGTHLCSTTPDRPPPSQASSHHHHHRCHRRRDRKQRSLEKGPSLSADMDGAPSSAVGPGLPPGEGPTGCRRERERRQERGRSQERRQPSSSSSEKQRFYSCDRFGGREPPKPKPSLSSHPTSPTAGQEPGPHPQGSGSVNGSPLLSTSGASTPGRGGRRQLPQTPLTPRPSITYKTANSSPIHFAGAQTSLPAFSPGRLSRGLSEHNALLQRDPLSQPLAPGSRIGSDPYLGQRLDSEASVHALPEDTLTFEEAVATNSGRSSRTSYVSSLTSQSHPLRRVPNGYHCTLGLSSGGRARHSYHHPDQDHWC
T1 sequence (P54284 whole entry partner): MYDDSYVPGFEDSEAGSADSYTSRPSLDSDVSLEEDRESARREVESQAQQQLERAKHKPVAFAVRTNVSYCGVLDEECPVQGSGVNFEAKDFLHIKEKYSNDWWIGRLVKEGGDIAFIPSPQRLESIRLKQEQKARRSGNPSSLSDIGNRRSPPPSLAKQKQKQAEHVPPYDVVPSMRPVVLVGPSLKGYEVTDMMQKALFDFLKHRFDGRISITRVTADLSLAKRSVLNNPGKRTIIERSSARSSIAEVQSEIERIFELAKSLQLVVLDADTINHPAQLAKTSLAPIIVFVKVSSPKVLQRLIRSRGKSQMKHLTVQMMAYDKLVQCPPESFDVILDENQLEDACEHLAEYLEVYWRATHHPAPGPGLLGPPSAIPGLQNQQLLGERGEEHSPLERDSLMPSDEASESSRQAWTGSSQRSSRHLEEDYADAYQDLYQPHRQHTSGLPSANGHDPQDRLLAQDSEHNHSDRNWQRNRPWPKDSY
T1 sequence (P54289 25-946 partner limits assumed): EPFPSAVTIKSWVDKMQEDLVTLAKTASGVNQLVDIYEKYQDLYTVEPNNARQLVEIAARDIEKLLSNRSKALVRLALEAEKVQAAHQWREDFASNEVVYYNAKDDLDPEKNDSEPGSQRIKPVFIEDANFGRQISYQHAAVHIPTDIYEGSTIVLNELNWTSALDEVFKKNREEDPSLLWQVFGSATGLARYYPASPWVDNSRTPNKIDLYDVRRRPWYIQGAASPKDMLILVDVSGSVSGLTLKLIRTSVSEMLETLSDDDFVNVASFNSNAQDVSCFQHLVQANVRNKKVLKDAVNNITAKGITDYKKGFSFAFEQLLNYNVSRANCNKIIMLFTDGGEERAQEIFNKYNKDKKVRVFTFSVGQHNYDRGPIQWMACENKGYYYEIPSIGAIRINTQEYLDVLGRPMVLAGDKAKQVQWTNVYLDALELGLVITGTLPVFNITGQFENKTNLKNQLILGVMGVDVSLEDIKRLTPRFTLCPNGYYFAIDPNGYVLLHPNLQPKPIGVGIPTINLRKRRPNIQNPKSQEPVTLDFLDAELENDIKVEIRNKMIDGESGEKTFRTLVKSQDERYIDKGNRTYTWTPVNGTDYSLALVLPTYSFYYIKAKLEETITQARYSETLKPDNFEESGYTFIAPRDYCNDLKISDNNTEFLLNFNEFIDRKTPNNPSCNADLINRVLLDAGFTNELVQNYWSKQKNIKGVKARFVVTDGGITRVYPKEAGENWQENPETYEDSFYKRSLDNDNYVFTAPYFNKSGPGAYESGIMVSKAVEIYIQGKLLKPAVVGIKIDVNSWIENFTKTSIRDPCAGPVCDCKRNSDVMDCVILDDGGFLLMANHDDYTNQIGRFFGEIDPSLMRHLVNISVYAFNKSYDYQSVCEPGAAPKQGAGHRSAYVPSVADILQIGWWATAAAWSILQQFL
T1 sequence (P54289 947-1103 partner limits assumed): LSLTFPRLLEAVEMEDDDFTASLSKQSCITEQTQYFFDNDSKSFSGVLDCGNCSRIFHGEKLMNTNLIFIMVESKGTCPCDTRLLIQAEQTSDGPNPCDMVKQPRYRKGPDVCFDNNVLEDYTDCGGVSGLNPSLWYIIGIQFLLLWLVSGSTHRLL

With Cc1c(C(=O)N2CC(C)CC(C)C2)oc2ccc(S(=O)(=O)N3CCCCC3)cc12 (centres unmarked) [compound 124] the IC50 [1] was 5 to 20 µM.
In the case of CC1CC(C)CN(S(=O)(=O)c2ccc3[nH]c(C(=O)N4CCCCCC4)cc3c2)C1 (centres unmarked) [compound 126], the IC50 [1] is reported as < 5 µM.
Work on Cc1c(C(=O)N2CC(C)CC(C)C2)[nH]c2ccc(S(=O)(=O)N3CCC(C)CC3)cc12 (centres unmarked) [compound 127] yielded an IC50 [1] of 5 to 20 µM.
In the case of Cc1c(C(=O)N2CCC(C)CC2)oc2ccc(S(=O)(=O)N3CCC(C)CC3)cc12 [compound 128], the IC50 [1] is reported as 5 to 20 µM.
Cc1c(C(=O)NCCN2CCOCC2)oc2ccc(S(=O)(=O)N3CCC(C)CC3)cc12 [compound 129] was tested, and the IC50 [1] was 5 to 20 µM.
In the case of CCNC(=O)c1cc2cc(S(=O)(=O)N3CCC(C)CC3)ccc2[nH]1 [compound 130], the IC50 [1] is reported as < 5 µM.
In the case of CCNC(=O)c1cc2cc(S(=O)(=O)N3CCC(C)CC3)ccc2o1 [compound 131], the IC50 [1] is reported as < 5 µM.
In the case of Cc1c(C(=O)NC2CCCCC2C)oc2ccc(S(=O)(=O)N3CCCC3)cc12 (centres unmarked) [compound 132], the IC50 [1] is reported as < 20 µM.
With Cc1c(C(=O)NC2CC2)oc2ccc(S(=O)(=O)Nc3nncs3)cc12 [compound 133] the IC50 [1] was < 20 µM.
With Cc1c(C(=O)NCCCN2CCCC2=O)oc2ccc(S(=O)(=O)N3CC(C)CC(C)C3)cc12 (centres unmarked) [compound 134] the IC50 [1] was 5 to 20 µM.
With CN1CCN(C(=O)c2cc3cc(S(=O)(=O)N4CCCCCC4)ccc3n2S(=O)(=O)c2ccccc2)CC1 [compound 135] the IC50 [1] was 5 to 20 µM.
Cc1c(C(=O)NCCc2ccccc2)oc2ccc(S(=O)(=O)N3CCC4(CC3)OCCO4)cc12 [compound 136] was tested, and the IC50 [1] was 5 to 20 µM.
In the case of CC1CC(C)CN(S(=O)(=O)c2ccc3oc(C(=O)N(C(C)C)C(C)C)cc3c2)C1 (centres unmarked) [compound 137], the IC50 [1] is reported as < 5 µM.
For CC1CCN(S(=O)(=O)c2ccc3oc(C(=O)N(C(C)C)C(C)C)cc3c2)CC1 [compound 138], the IC50 [1] was < 5 µM.
Compound CC1CCN(S(=O)(=O)c2ccc3cc(C(=O)NC4CC4)[nH]c3c2)CC1 [compound 139] has an IC50 [1] of 5 to 20 µM.
With CC1CCN(S(=O)(=O)c2ccc3[nH]c(C(=O)N(C(C)C)C(C)C)cc3c2)CC1 [compound 140] the IC50 [1] was < 5 µM.
For CCCCN(C)C(=O)c1cc2cc(S(=O)(=O)N3CCC(C)CC3)ccc2[nH]1 [compound 141], the IC50 [1] was < 5 µM.
CC1CCN(S(=O)(=O)c2ccc3[nH]c(C(=O)NC(C)C)cc3c2)CC1 [compound 142] was tested, and the IC50 [1] was < 5 µM.
For CC1CC(C)CN(S(=O)(=O)c2ccc3[nH]c(C(=O)N4CCCC4)cc3c2)C1 (centres unmarked) [compound 143], the IC50 [1] was 5 to 20 µM.
Work on Cc1c(C(=O)N2CC(C)CC(C)C2)oc2ccc(S(=O)(=O)N3CCOCC3)cc12 (centres unmarked) [compound 144] yielded an IC50 [1] of 5 to 20 µM.
For CNC(=O)c1oc2ccc(S(=O)(=O)N3CCCCCC3)cc2c1C [compound 145], the IC50 [1] was < 20 µM.
In the case of Cc1c(C(=O)NC2CCCC2)[nH]c2ccc(S(=O)(=O)N3CCC(C)CC3)cc12 [compound 146], the IC50 [1] is reported as < 5 µM.
With CC1CCN(C(=O)c2cc3cc(S(=O)(=O)N4CCC(C)CC4)ccc3[nH]2)CC1 [compound 147] the IC50 [1] was < 5 µM.
In the case of Cc1c(C(=O)NC2CCCC2)oc2ccc(S(=O)(=O)N3CCC(C)CC3)cc12 [compound 148], the IC50 [1] is reported as < 5 µM.
Cc1c(C(=O)NCC2CCCO2)oc2ccc(S(=O)(=O)N3CCOCC3)cc12 (centres unmarked) [compound 149] was tested, and the IC50 [1] was < 20 µM.
For CCNC(=O)c1oc2ccc(S(=O)(=O)N3CCCCCC3)cc2c1C [compound 150], the IC50 [1] was 5 to 20 µM.
For Cc1ccc(S(=O)(=O)Nc2ccc3[nH]c(C(=O)NC4CC4)cc3c2)cc1 [compound 151], the IC50 [1] was 5 to 20 µM.
For Cc1c(C(=O)N2CCN(C)CC2)oc2ccc(S(=O)(=O)N3CCCCCC3)cc12 [compound 152], the IC50 [1] was 5 to 20 µM.
Cc1c(C(=O)N2CCCCC2C)oc2ccc(S(=O)(=O)N3CC(C)CC(C)C3)cc12 (centres unmarked) [compound 153] was tested, and the IC50 [1] was < 5 µM.
Cc1c(C(=O)NCc2ccc(F)cc2)oc2ccc(S(=O)(=O)N3CCC(C)CC3)cc12 [compound 154] was tested, and the IC50 [1] was 5 to 20 µM.
For CNC(=O)c1oc2ccc(S(=O)(=O)N3CCCCC3)cc2c1C [compound 155], the IC50 [1] was < 20 µM.
For CC1CC(C)CN(S(=O)(=O)c2ccc3oc(C(=O)N4CCC5(CC4)OCCO5)cc3c2)C1 (centres unmarked) [compound 156], the IC50 was < 5 µM.
Compound Cc1c(C(=O)NC(C)C)oc2ccc(S(=O)(=O)N3CCC(F)CC3)cc12 [compound 157] has an IC50 [1] of 5 to 20 µM.
In the case of CCOC(=O)N1CCN(C(=O)c2cc3cc(S(=O)(=O)N4CCC(C)CC4)ccc3o2)CC1 [compound 158], the IC50 [1] is reported as < 20 µM.
Compound Cc1c(C(=O)N(C(C)C)C(C)C)oc2ccc(S(=O)(=O)N3CCCCCC3)cc12 [compound 159] has an IC50 [1] of 5 to 20 µM.
With Cc1c(C(=O)N2CCN(C)CC2)[nH]c2ccc(S(=O)(=O)N3CC(C)CC(C)C3)cc12 (centres unmarked) [compound 160] the IC50 [1] was 5 to 20 µM.
Work on Cc1c(C(=O)N2CCC3(CC2)OCCO3)oc2ccc(S(=O)(=O)N3CCCCCC3)cc12 [compound 161] yielded an IC50 of 5 to 20 µM.
For CCN(CC)C(=O)c1oc2ccc(S(=O)(=O)N3CCOCC3)cc2c1C [compound 162], the IC50 [1] was < 20 µM.
Cc1c(C(=O)N2CCC(C)CC2)oc2ccc(S(=O)(=O)N3CCOCC3)cc12 [compound 163] was tested, and the IC50 [1] was < 20 µM.
In the case of CCN(CC)S(=O)(=O)c1ccc2oc(C(=O)N3CC(C)CC(C)C3)c(C)c2c1 (centres unmarked) [compound 164], the IC50 [1] is reported as < 5 µM.
With CN1CCN(C(=O)c2cc3cc(S(=O)(=O)N4CCCCCC4)ccc3o2)CC1 [compound 165] the IC50 [1] was 5 to 20 µM.
Cc1c(C(=O)NCC2CCOCC2)[nH]c2ccc(S(=O)(=O)N3CCC(C)CC3)cc12 [compound 166] was tested, and the IC50 [1] was < 20 µM.
With COc1ccccc1CNC(=O)c1oc2ccc(S(=O)(=O)N3CCOCC3)cc2c1C [compound 167] the IC50 [1] was < 20 µM.
CCN(CC)C(=O)c1[nH]c2ccc(S(=O)(=O)N3CCC(C)CC3)cc2c1C [compound 168] was tested, and the IC50 [1] was 5 to 20 µM.
For O=C(c1cc2cc(S(=O)(=O)N3CCCCCC3)ccc2o1)N1CCCCCC1 [compound 169], the IC50 [1] was < 5 µM.
With CC1CCCN(C(=O)c2cc3cc(S(=O)(=O)N4CCCCCC4)ccc3o2)C1 (centres unmarked) [compound 170] the IC50 [1] was < 5 µM.
With CC1CCCN(C(=O)c2cc3cc(S(=O)(=O)N4CC(C)CC(C)C4)ccc3[nH]2)C1 (centres unmarked) [compound 171] the IC50 [1] was < 5 µM.
For Cc1c(C(=O)N2CCC3(CC2)OCCO3)oc2ccc(S(=O)(=O)N3CCCCC3)cc12 [compound 173], the IC50 was 5 to 20 µM.
For Cc1c(C(=O)NC2CCCC2)n(C)c2ccc(S(=O)(=O)N3CCC(C)CC3)cc12 [compound 174], the IC50 [1] was < 5 µM.
In the case of CCOC(=O)C1CCN(C(=O)c2oc3ccc(S(=O)(=O)N4CCC(C)CC4)cc3c2C)CC1 [compound 176], the IC50 [1] is reported as < 5 µM.
Cc1c(C(=O)NC2CCCC2)oc2ccc(S(=O)(=O)N3CCCC(C)C3)cc12 (centres unmarked) [compound 177] was tested, and the IC50 [1] was < 5 µM.
Cc1c(C(=O)N2CCCC2)oc2ccc(S(=O)(=O)N3CCCC(C)C3)cc12 (centres unmarked) [compound 178] showed an IC50 [1] of 5 to 20 µM.
In the case of CCN(CC)S(=O)(=O)c1ccc2oc(C(=O)NCC3CCCO3)c(C)c2c1 (centres unmarked) [compound 179], the IC50 [1] is reported as < 20 µM.
In the case of Cc1c(C(=O)NCCCN2CCCC2)oc2ccc(S(=O)(=O)N3CC(C)CC(C)C3)cc12 (centres unmarked) [compound 180], the IC50 [1] is reported as < 5 µM.
CCCN(c1ccc2[nH]c(C(=O)NC3CC3)cc2c1)S(=O)(=O)c1ccccc1 [compound 181] was tested, and the IC50 [1] was 5 to 20 µM.
Cc1c(C(=O)NC2CC2)oc2ccc(S(=O)(=O)NCc3ccc(F)cc3)cc12 [compound 182] was tested, and the IC50 [1] was < 20 µM.
Work on O=C(c1cc2cc(S(=O)(=O)N3CCCCCC3)ccc2o1)N1CCC2(CC1)OCCO2 [compound 183] yielded an IC50 of 5 to 20 µM.
With CC1CC(C)CN(S(=O)(=O)c2ccc3oc(C(=O)N4CCCC4)cc3c2)C1 (centres unmarked) [compound 184] the IC50 [1] was < 5 µM.
With CC1CC(C)CN(S(=O)(=O)c2ccc3[nH]c(C(=O)N(C)Cc4ccccc4)cc3c2)C1 (centres unmarked) [compound 185] the IC50 [1] was < 5 µM.
With CCN(CC)C(=O)c1oc2ccc(S(=O)(=O)N(CC)CC)cc2c1C [compound 186] the IC50 [1] was < 20 µM.
With Cc1c(C(=O)NC2CCCC(C)C2C)oc2ccc(S(=O)(=O)N3CCOCC3)cc12 (centres unmarked) [compound 187] the IC50 [1] was 5 to 20 µM.
CC1CCN(S(=O)(=O)c2ccc3oc(C(=O)N4CCN(C)CC4)cc3c2)CC1 [compound 188] was tested, and the IC50 [1] was 5 to 20 µM.
